We go through 31 compounds from US12673961B2 (Agios Pharmaceuticals, Inc., priority 2022, dated 2026).

The first assay concerns the target T1, human PAH with the R408W mutation (Homo sapiens, UniProt P00439, R408W).
T1 construct: expressed in transfected cells
T1 sequence (P00439 1-452 R408W): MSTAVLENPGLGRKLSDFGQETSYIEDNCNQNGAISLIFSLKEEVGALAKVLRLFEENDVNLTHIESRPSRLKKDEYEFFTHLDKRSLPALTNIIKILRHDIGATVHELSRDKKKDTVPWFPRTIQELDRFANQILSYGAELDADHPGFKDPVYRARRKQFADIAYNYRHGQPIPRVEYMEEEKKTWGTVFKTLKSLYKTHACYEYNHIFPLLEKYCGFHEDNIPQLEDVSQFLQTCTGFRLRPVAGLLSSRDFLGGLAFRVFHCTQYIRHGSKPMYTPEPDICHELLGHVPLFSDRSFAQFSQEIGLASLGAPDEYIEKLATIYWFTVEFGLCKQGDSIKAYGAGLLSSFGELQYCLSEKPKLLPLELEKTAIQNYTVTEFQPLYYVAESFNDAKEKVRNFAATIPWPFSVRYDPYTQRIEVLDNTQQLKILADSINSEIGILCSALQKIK
The assay can be described thus: Cell Based Phenylalanine Flux Assay.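 Further: Ten-point dose curve from 2-fold serial dilutions, run in duplicate at 0.5% DMSO final, tracer step used 20 µM sepiapterin and 800 µM labeled phenylalanine.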 Set-up: scale not given here. Particulars: A375 cells expressing R408W PAH; 24 hrs with compound, then 20 μM sepiapterin and 800 μM 13C9,15N-Phenylalanine for 4 hours; 13C-Tyrosine in media by LC-MS; average where tested multiple times.
Usually AC50 stands for the concentration giving half of the maximal activity seen. As for `Cc1cccn2nc(C3c4nc[nH]c4CCN3C(=O)c3ccnn3C(F)(F)F)cc12` (single isomer, unassigned), the AC50 entry is given as “E, E”.

The same assay, now with this note: A375 cells expressing R408W PAH; 24 hrs with compound, then 20 μM sepiapterin and 800 μM 13C9,15N-Phenylalanine for 4 hours; 13C-Tyrosine in media by LC-MS; average where tested multiple times; read-out: AC50.
Consider `FC1(F)CC(c2nnc(N3CCc4[nH]cnc4C3c3cc4ccccn4n3)o2)C1` (single isomer, unassigned) [4S enantiomer of 2-(3,3-difluorocyclobutyl)-5-[4-{pyrazolo{1], for which the AC50 is over 5000 nM.

In the case of `O=C(c1nnc(-c2ncccn2)o1)N1CCc2[nH]cnc2[C@H]1c1cc2c(OC(F)F)cccn2n1` (single isomer, unassigned), the AC50 lay in the range of 1000 to 5000 nM.

As for `Cn1cnc(-c2nnc(C(=O)N3CCc4[nH]cnc4C3c3cc4cccc(C(F)F)n4n3)o2)c1` (stereo not shown), the half-maximal activity concentration (AC50) lay in the range of 1000 to 5000 nM.

In the case of `c1ccn2nc(C3c4nc[nH]c4CCN3c3nnc(C4CC4)o3)cc2c1` (stereo not shown), the concentration at half-maximal activity (AC50) lay in the range of 1000 to 5000 nM.

As to `O=C(c1cnn(-c2ccccn2)c1Cl)N1CCc2[nH]cnc2[C@@H]1c1cc2ccccn2n1` (single isomer, unassigned), the AC50 is over 5000 nM.

For `c1cc(C2CC2)c2cc([C@@H]3c4nc[nH]c4CCN3c3nnc(-c4ccncn4)o3)nn2c1` (single isomer, unassigned), the half-maximal activity concentration (AC50) was 1000 to 5000 nM.

Consider `Cc1cccn2nc([C@@H]3c4nc[nH]c4CCN3c3nnc(C(=O)N(C)C)o3)cc12` (single isomer, unassigned), for which the AC50 lay within 1000 to 5000 nM.

With `Cc1cccn2nc([C@@H]3c4nc[nH]c4CCN3c3nnc(-c4cnn(C)c4)o3)cc12` (single isomer, unassigned), the concentration at half-maximal activity (AC50) is 1000 to 5000 nM.

In the case of `Cn1nc(C(C)(C)C)cc1C(=O)N1CCc2[nH]cnc2[C@@H]1c1cc2c(F)cccn2n1` (single isomer, unassigned), the AC50 is over 5000 nM.

In the case of `FC(F)(F)c1cccc2cc([C@@H]3c4nc[nH]c4CCN3c3nnc(C4CC4)o3)nn12` (single isomer, unassigned), the AC50 lay in the range of 1000 to 5000 nM.

The assay is the same for the next values; noted with them: A375 cells expressing human R408W PAH; 24 hrs compound incubation; 13C-Tyrosine by LC-MS; average where tested multiple times; read-out: AC50.
Take `Cc1ncccc1-c1nnc(C(=O)N2CCc3[nH]cnc3[C@H]2c2cc3c(Cl)cccn3n2)o1` [Example 1356, (S)-(4-(4-chloropyrazolo [1,5-a]pyridin-2-yl)-6,7-dihydro-1H-imidazo[4,5-c]pyridin-5(4H)-yl)(5-(2-methylpyridin-3-yl)-1,3,4-oxadiazol-2-yl)methanone]: the AC50 is under 500 nM.

As for `O=C(c1ccnn1C(F)F)N1CCc2[nH]cnc2[C@@H]1c1cc2c(Cl)cccn2n1` [Example 783, (R)-(4-(4-chloropyrazolo [1,5-a]pyridin-2-yl)-6,7-dihydro-1H-imidazo [4,5-c]pyridin-5(4H)-yl)(1-(difluoromethyl)-1H-pyrazol-5-yl)methanone], the AC50 lay within 1000 to 5000 nM.

Regarding `Cc1cccc2cc([C@@H]3c4nc[nH]c4CCN3C(=O)c3oc(C4(O)CC4)nc3C(F)F)nn12` [Example 1280, (S)-(4-(difluoromethyl)-2-(1-hydroxycyclopropyl)oxazol-5-yl)(4-(7-methylpyrazolo[1,5-a]pyridin-2-yl)-6,7-dihydro-1H-imidazo[4,5-c]pyridin-5(4H)-yl)methanone], the AC50 is under 500 nM.

With `Cn1cc(-c2nnc(C(=O)N3CCc4[nH]cnc4[C@@H]3c3cc4cccc(Cl)n4n3)o2)cn1` [Example 1067, (R)-(4-(7-chloropyrazolo [1,5-a]pyridin-2-yl)-6,7-dihydro-1H-imidazo[4,5-c]pyridin-5(4H)-yl)(5-(1-methyl-1H-pyrazol-4-yl)-1,3,4-oxadiazol-2-yl)methanone], the AC50 is over 5000 nM.

Consider `COc1cccn2nc([C@@H]3c4nc[nH]c4CCN3C(=O)c3cnn4ccccc34)cc12` [Example 1326, (S)-(4-(4-methoxypyrazolo [1,5-a]pyridin-2-yl)-6,7-dihydro-1H-imidazo [4,5-c]pyridin-5(4H)-yl)(pyrazolo[1,5-a]pyridin-3-yl)methanone], for which the AC50 was under 500 nM.

With `Cc1nc(C(=O)N2CCc3[nH]cnc3[C@H]2c2cc3c(Cl)cccn3n2)n(C)n1` [Example 1074, (S)-(4-(4-chloropyrazolo [1,5-a]pyridin-2-yl)-6,7-dihydro-1H-imidazo[4,5-c]pyridin-5(4H)-yl)(1,3-dimethyl-1H-1,2,4-triazol-5-yl)methanone], the half-maximal activity concentration (AC50) was in the range of 500 to 1000 nM.

Consider `O=C(c1ocnc1C(F)F)N1CCc2[nH]cnc2[C@H]1c1cc2ccc(C(F)(F)F)cn2n1` [Example 1104, (S)-(4-(difluoromethyl)oxazol-5-yl)(4-(6-(trifluoromethyl)pyrazolo [1,5-a]pyridin-2-yl)-6,7-dihydro-1H-imidazo[4,5-c]pyridin-5(4H)-yl)methanone], for which the AC50 is under 500 nM.

In the case of `O=C(c1nnc(-c2cccnc2)o1)N1CCc2[nH]cnc2[C@H]1c1cc2cccc(C(F)(F)F)n2n1` [Example 1340, (S)-(5-(pyridin-3-yl)-1,3,4-oxadiazol-2-yl)(4-(7-(trifluoromethyl)pyrazolo [1,5-a]pyridin-2-yl)-6,7-dihydro-1H-imidazo[4,5-c]pyridin-5(4H)-yl)methanone], the AC50 fell in the range of 500 to 1000 nM.

For the compound `Cn1nc(C(F)F)cc1C(=O)N1CCc2[nH]cnc2[C@@H]1c1cc2c(C(F)F)cccn2n1` [Example 1373, (R)-(3-(difluoromethyl)-1-methyl-1H-pyrazol-5-yl)(4-(4-(difluoromethyl)pyrazolo [1,5-a]pyridin-2-yl)-6,7-dihydro-1H-imidazo[4,5-c]pyridin-5(4H)-yl)methanone], the AC50 was 1000 to 5000 nM.

The same assay, now with this note: A375 cells expressing human R408W PAH; 24 hrs with compound, then sepiapterin and 13C9,15N-Phenylalanine for 4 hours; 13C-Tyrosine by LC-MS; average where tested multiple times; read-out: AC50.
Take `O=C(c1cnc(-c2ccccn2)o1)N1CCc2[nH]cnc2[C@@H]1c1cc2c(C(F)F)cccn2n1` [Example 2035, (R)-(4-(4-(difluoromethyl)pyrazolo[1,5-a]pyridin-2-yl)-1,4,6,7-tetrahydro-5H-imidazo [4,5-c]pyridin-5-yl)(2-(pyridin-2-yl)oxazol-5-yl)methanone]: the AC50 is over 5000 nM.

For `CN(C)c1ccc2c(C(=O)N3CCc4[nH]cnc4[C@H]3c3cc4c(C(F)(F)F)cccn4n3)cnn2c1` [Example 1746, (S)-(6-(dimethylamino)pyrazolo[1,5-a]pyridin-3-yl)(4-(4-(trifluoromethyl)pyrazolo [1,5-a]pyridin-2-yl)-6,7-dihydro-1H-imidazo[4,5-c]pyridin-5(4H)-yl)methanone], the AC50 was under 500 nM.

As for `Fc1cccc(F)c1-c1nnc(N2CCc3[nH]cnc3[C@H]2c2cc3ccccn3n2)o1` (single isomer, unassigned) [Example 1843], the AC50 is under 500 nM.

Turning to `O=C(c1nc2ccccc2o1)N1CCc2[nH]cnc2[C@H]1c1cc2c(F)cccn2n1` [Example 2050, (S)-benzo[d]oxazol-2-yl (4-(4-fluoropyrazolo[1,5-a]pyridin-2-yl)-1,4,6,7-tetrahydro-5H-imidazo[4,5-c]pyridin-5-yl)methanone], the AC50 is under 500 nM.

As for `Cc1cccc(-c2nnc(N3CCc4[nH]cnc4[C@@H]3c3cc4ccccn4n3)o2)n1` [Example 2343, (R)-2-(6-methylpyridin-2-yl)-5-(4-(pyrazolo[1,5-a]pyridin-2-yl)-1,4,6,7-tetrahydro-5H-imidazo[4,5-c]pyridin-5-yl)-1,3,4-oxadiazole], the AC50 was over 5000 nM.

On to `O=C(c1nnc(-c2ccccn2)s1)N1CCc2[nH]cnc2[C@@H]1c1cc2c(F)cccn2n1` [Example 1969, (R)-(4-(4-fluoropyrazolo [1,5-a]pyridin-2-yl)-1,4,6,7-tetrahydro-5H-imidazo[4,5-c]pyridin-5-yl)(5-(pyridin-2-yl)-1,3,4-thiadiazol-2-yl) methanone], for which the AC50 was over 5000 nM.

As for `Cc1cccnc1-c1nnc(N2CCc3[nH]cnc3[C@H]2c2cc3cccc(C(F)F)n3n2)o1` [Example 2352, (S)-2-(4-(7-(difluoromethyl)pyrazolo[1,5-a]pyridin-2-yl)-1,4,6,7-tetrahydro-5H-imidazo [4,5-c]pyridin-5-yl)-5-(3-methylpyridin-2-yl)-1,3,4-oxadiazole], the half-maximal activity concentration (AC50) lay in the range of 500 to 1000 nM.

With `O=C(c1nnc(-c2cnn(C(F)(F)F)c2)o1)N1CCc2[nH]cnc2[C@@H]1c1cc2c(Cl)cccn2n1` [Example 1505], the AC50 is over 5000 nM.

As to `Cc1ccc2c(C(=O)N3CCc4[nH]cnc4[C@H]3c3cc4c(C)cccn4n3)cnn2c1` [Example 1668, (S)-(4-(4-methylpyrazolo [1,5-a]pyridin-2-yl)-6,7-dihydro-1H-imidazo [4,5-c]pyridin-5(4H)-yl)(6-methylpyrazolo[1,5-a]pyridin-3-yl)methanone], the AC50 was in the range of 500 to 1000 nM.

`CC1(c2nnc(N3CCc4[nH]cnc4[C@H]3c3cc4c(C5CC5)cccn4n3)o2)CC1` [Example 2227, (S)-2-(4-(4-cyclopropylpyrazolo [1,5-a]pyridin-2-yl)-1,4,6,7-tetrahydro-5H-imidazo [4,5-c]pyridin-5-yl)-5-(1-methylcyclopropyl)-1,3,4-oxadiazole]: the AC50 is 500 to 1000 nM.

With `O=C(c1cnc(-c2ccccn2)o1)N1CCc2[nH]cnc2C1c1cc2c(C(F)(F)F)cccn2n1` (stereo in doubt) [Example 2036, (S)-(2-(pyridin-2-yl)oxazol-5-yl)(4-(4-(trifluoromethyl)pyrazolo [1,5-a]pyridin-2-yl)-1,4,6,7-tetrahydro-5H-imidazo[4,5-c]pyridin-5-yl)methanone], the AC50 is under 500 nM.
